Reference: PMC4076284, “A Characteristic Back Support Structure in the Bisphenol A-Binding Pocket in the Human Nuclear Receptor ERRγ” (PLoS ONE, 2014)

What was measured:
[1] = molecular target: T1, Leu345Ile-ERRγ mutant receptor (GST-fused LBD) (Homo sapiens, UniProt P62508, L345I); experiment: Competitive binding assay using [^3H]BPA
T1 construct: wild-type ERRγ-LBD encoding 222-458 residues; made in house; host or cells: E. coli BL21
Procedure: (§1) Wild-type and mutant ERRγ-LBD proteins were expressed as glutathione S-transferase (GST)-fused preparations in E. coli BL21 as described previously [1], [24], [25]. […] After loading the protein solution, the column was incubated for 1 h at 4°C, and then washed three times with PBS containing 0.5% (v/v) Triton X-100 and once with sonication buffer (50 mM Tris-HCl (pH 8.0), 50 mM NaCl, 1 mM EDTA, and 1 mM dithiothreitol). […] The protein concentrations were determined by the Bradford method [26].
(§2) Competitive binding assays were performed in the presence of GST-fused wild-type ERRγ-LBD or its mutants at the most appropriate concentration of each receptor. […] Radioactivity was determined on a liquid scintillation counter TopCount NXT (PerkinElmer Life Sciences Japan Co., Ltd., Tokyo, Japan). To estimate the binding affinity, the IC50 values (the concentrations for the half-maximal inhibition) were calculated from the dose-response curves evaluated by the nonlinear analysis program ALLFIT [30]. Each assay was performed at least three times.

[2] = molecular target: T2, Asn346Gly-ERRγ mutant receptor (GST-fused LBD) (Homo sapiens, UniProt P62508, N346G); experiment: Competitive binding assay using [^3H]BPA
T2 construct: wild-type ERRγ-LBD encoding 222-458 residues; made in house; host or cells: E. coli BL21
T2 sequence (P62508 222-458 N346G): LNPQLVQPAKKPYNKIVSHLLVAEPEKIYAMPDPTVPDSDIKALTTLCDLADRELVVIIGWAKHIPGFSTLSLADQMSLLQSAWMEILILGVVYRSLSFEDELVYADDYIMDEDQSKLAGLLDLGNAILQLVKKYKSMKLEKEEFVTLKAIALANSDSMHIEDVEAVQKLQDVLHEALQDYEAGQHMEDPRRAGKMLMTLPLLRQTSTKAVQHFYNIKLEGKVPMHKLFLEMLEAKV
Procedure: as §1, §2

[3] = molecular target: T3, Asn346Tyr-ERRγ mutant receptor (GST-fused LBD) (Homo sapiens, UniProt P62508, N346Y); experiment: Competitive binding assay using [^3H]BPA
T3 construct: wild-type ERRγ-LBD encoding 222-458 residues; made in house; host or cells: E. coli BL21
T3 sequence (P62508 222-458 N346Y): as the sequence (P62508 222-458 N346G) above, with G125Y counted along it
Procedure: as §1, §2

[4] = molecular target: T4, Val313Ala-ERRγ mutant receptor (GST-fused LBD) (Homo sapiens, UniProt P62508, V313A); experiment: Competitive binding assay using [^3H]BPA; conditions: competitive binding (Table 3, BPA value from ref 24)
T4 construct: wild-type ERRγ-LBD encoding 222-458 residues was generated by PCR; made in house; host or cells: E. coli BL21
T4 sequence (P62508 222-458 V313A): as the sequence (P62508 222-458 N346G) above, with V92A, G125N counted along it
Procedure: as §1, §2

[5] = molecular target: T5, Tyr330Ala-ERRγ mutant receptor (GST-fused LBD) (Homo sapiens, UniProt P62508, Y330A); experiment: Competitive binding assay using [^3H]BPA
T5 construct: wild-type ERRγ-LBD encoding 222-458 residues was generated by PCR; made in house; host or cells: E. coli BL21
T5 sequence (P62508 222-458 Y330A): as the sequence (P62508 222-458 N346G) above, with Y109A, G125N counted along it
Procedure: as §1, §2

[6] = molecular target: T6, Tyr330Phe-ERRγ mutant receptor (GST-fused LBD) (Homo sapiens, UniProt P62508, Y330F); experiment: Competitive binding assay using [^3H]BPA
T6 construct: wild-type ERRγ-LBD encoding 222-458 residues was generated by PCR; made in house; host or cells: E. coli BL21
T6 sequence (P62508 222-458 Y330F): as the sequence (P62508 222-458 N346G) above, with Y109F, G125N counted along it
Procedure: as §1, §2

ERRγ mutant receptors = experiment: [^3H]BPA saturation and/or competitive binding: ranges stated over several ERRγ mutants or both assays; design: species or system human; conditions: for Activity decrements vs wild-type: competitive binding (Table 2)
Procedure: The reaction mixture was incubated at 4°C for 2 h with the receptor proteins—GST-fused wild-type ERRγ-LBD or its mutants—in 100 µl of binding buffer [10 mM HEPES (pH 7.5), 50 mM NaCl, 2 mM MgCl2, 1 mM EDTA, 2 mM CHAPS, and 2 mg/ml γ-globulin]. The assay was performed with or without the addition of unlabelled BPA (final concentration of 1.0×10^-5 M) to quantify the specific and nonspecific binding. After incubation with 100 µl of 1% dextran-coated charcoal (DCC) (Sigma-Aldrich) in PBS (pH 7.4) for 10 min at 4°C, the DCC-absorbed free radio-ligand was removed by the direct vacuum filtration method using a 96-well filtration plate (MultiScreen^HTS HV, 0.45 µm pore size; Millipore, Billerica, MA, USA) for the bound/free separation. Radioactivity was determined on a liquid scintillation counter (LS6500; Beckman Coulter, Fullerton, CA, USA).
The saturation binding assay was performed at least three times.
Each assay was performed at least three times.

[7] = molecular target: T7, Ile310Ala-ERRγ mutant receptor (GST-fused LBD) (Homo sapiens, UniProt P62508, I310A); conditions: BPA value re-collected from the previous report, read-out: Receptor binding potency IC50; cited from earlier work
T7 construct: wild-type ERRγ-LBD encoding 222-458 residues was generated by PCR; made in house; host or cells: E. coli BL21
T7 sequence (P62508 222-458 I310A limits assumed): as the sequence (P62508 222-458 N346G) above, with I89A, G125N counted along it

[8] = molecular target: T4, Val313Ala-ERRγ mutant receptor (GST-fused LBD); conditions: BPA value re-collected from the previous report, read-out: Receptor binding potency IC50; cited from earlier work
[9] = molecular target: T8, Val313Leu-ERRγ mutant receptor (GST-fused LBD) (Homo sapiens, UniProt P62508, V313L); conditions: BPA value re-collected from the previous report, read-out: Receptor binding potency IC50; cited from earlier work
T8 construct: wild-type ERRγ-LBD encoding 222-458 residues was generated by PCR; made in house; host or cells: E. coli BL21
T8 sequence (P62508 222-458 V313L limits assumed): as the sequence (P62508 222-458 N346G) above, with V92L, G125N counted along it

[10] = molecular target: GST-fused wild-type ERRγ-LBD (Homo sapiens, UniProt P62508); experiment: biochemical; conditions: [^3H]BPA 5 nM, 4°C, 2 h
Chain of GST-fused wild-type ERRγ-LBD (P62508 222-458): as the sequence (P62508 222-458 N346G) above, with G125N counted along it
Procedure: as §1, §2

[11] = molecular target: Leu342Val-ERRγ mutant receptor (GST-fused LBD) (Homo sapiens, UniProt P62508, L342V); experiment: biochemical
Chain of Leu342Val-ERRγ mutant receptor (GST-fused LBD) (P62508 222-458 L342V limits assumed): as the sequence (P62508 222-458 N346G) above, with L121V, G125N counted along it
Procedure: as §1, §2

[12] = molecular target: Leu342Ile-ERRγ mutant receptor (GST-fused LBD) (Homo sapiens, UniProt P62508, L342I); experiment: biochemical
Chain of Leu342Ile-ERRγ mutant receptor (GST-fused LBD) (P62508 222-458 L342I limits assumed): as the sequence (P62508 222-458 N346G) above, with L121I, G125N counted along it
Procedure: as §1, §2

[13] = molecular target: Leu345Ala-ERRγ mutant receptor (GST-fused LBD) (Homo sapiens, UniProt P62508, L345A); experiment: biochemical
Chain of Leu345Ala-ERRγ mutant receptor (GST-fused LBD) (P62508 222-458 L345A limits assumed): as the sequence (P62508 222-458 N346G) above, with L124A, G125N counted along it
Procedure: as §1, §2

[14] = molecular target: Leu345Val-ERRγ mutant receptor (GST-fused LBD) (Homo sapiens, UniProt P62508, L345V); experiment: biochemical
Chain of Leu345Val-ERRγ mutant receptor (GST-fused LBD) (P62508 222-458 L345V limits assumed): as the sequence (P62508 222-458 N346G) above, with L124V, G125N counted along it
Procedure: as §1, §2

[15] = molecular target: Asn346Ala-ERRγ mutant receptor (GST-fused LBD) (Homo sapiens, UniProt P62508, N346A); experiment: biochemical
Chain of Asn346Ala-ERRγ mutant receptor (GST-fused LBD) (P62508 222-458 N346A): as the sequence (P62508 222-458 N346G) above, with G125A counted along it
Procedure: as §1, §2

[16] = molecular target: Asn346Gln-ERRγ mutant receptor (GST-fused LBD) (Homo sapiens, UniProt P62508, N346Q); experiment: biochemical
Chain of Asn346Gln-ERRγ mutant receptor (GST-fused LBD) (P62508 222-458 N346Q): as the sequence (P62508 222-458 N346G) above, with G125Q counted along it
Procedure: as §1, §2

[17] = molecular target: Ile349Ala-ERRγ mutant receptor (GST-fused LBD) (Homo sapiens, UniProt P62508, I349A); experiment: biochemical
Chain of Ile349Ala-ERRγ mutant receptor (GST-fused LBD) (P62508 222-458 I349A limits assumed): as the sequence (P62508 222-458 N346G) above, with G125N, I128A counted along it
Procedure: as §2

[18] = molecular target: Ile349Val-ERRγ mutant receptor (GST-fused LBD) (Homo sapiens, UniProt P62508, I349V); experiment: biochemical
Chain of Ile349Val-ERRγ mutant receptor (GST-fused LBD) (P62508 222-458 I349V limits assumed): as the sequence (P62508 222-458 N346G) above, with G125N, I128V counted along it
Procedure: as §2

[19] = molecular target: Ile349Leu-ERRγ mutant receptor (GST-fused LBD) (Homo sapiens, UniProt P62508, I349L); experiment: biochemical
Chain of Ile349Leu-ERRγ mutant receptor (GST-fused LBD) (P62508 222-458 I349L): as the sequence (P62508 222-458 N346G) above, with G125N, I128L counted along it
Procedure: as §2

[20] = molecular target: T9, Lys430Ala-ERRγ mutant receptor (GST-fused LBD) (Homo sapiens, UniProt P62508, K430A); experiment: biochemical
T9 sequence (P62508 222-458 K430A): as the sequence (P62508 222-458 N346G) above, with G125N, K209A counted along it
Procedure: as §1, §2

[21] = molecular target: T10, His434Phe-ERRγ mutant receptor (GST-fused LBD) (Homo sapiens, UniProt P62508, H434F); experiment: biochemical
T10 sequence (P62508 222-458 H434F): as the sequence (P62508 222-458 N346G) above, with G125N, H213F counted along it
Procedure: as §1, §2

[22] = molecular target: T9, Lys430Ala-ERRγ mutant receptor (GST-fused LBD); conditions: heterogeneous binding assay using [^3H]BPA
Procedure: as §1, §2

[23] = molecular target: T10, His434Phe-ERRγ mutant receptor (GST-fused LBD); conditions: heterogeneous competitive binding
Procedure: as §1, §2

[24] = read-out: Receptor binding potency IC50

T1 sequence (P62508 222-458 L345I limits assumed): as the sequence (P62508 222-458 N346G) above, with L124I, G125N counted along it

For `CC(C)(c1ccc(O)cc1)c1ccc(O)cc1` [BPA, bisphenol A], the “Decrease in binding vs wild-type” value ([1]; Leu345Ile mutant, homologous competitive binding) was “approximately 30 fold”, the IC50 [1, 24] was 158 ± 19.8 nM and the “Binding affinity relative to the wild-type ERRγ (IC50)” value ([2]; Asn346Gly mutant, homologous competitive binding) was “ca. 12%”. The IC50 [2, 24] was 42.4 ± 5.44 nM, the “Reduction in binding affinity vs wild-type” value ([3]; Asn346Tyr mutant, competitive binding) was “approximately 9 fold” and the IC50 [3, 24] was 45.2 ± 8.91 nM. The “Reduction in binding affinities vs wild-type” value [4] was “approximately 5 fold”, the “Reduction in IC50 value vs wild-type” value ([5]; Tyr330Ala mutant, homologous competitive binding) was “more than 60 fold” and the IC50 [5, 24] was 361 ± 39.3 nM. For the same compound, the “Reduction in IC50 value vs wild-type” value ([6]; Tyr330Phe mutant, homologous competitive binding) was “approximately 3 fold”, the IC50 [6, 24] was 16.1 ± 0.58 nM and the “Reduced binding affinity vs wild-type” value (ERRγ mutant receptors; Asn346Ala mutant, saturation and competitive binding (Tables 1 and 2)) was 2–4 times. The “Reduction in the affinity vs wild-type” value (ERRγ mutant receptors; Asn346Gln mutant, saturation and competitive binding (Tables 1 and 2)) was 3-10 fold, the “Activity decrements vs wild-type” value (ERRγ mutant receptors; Asn346 mutant receptors (Ala, Gly, Gln, Tyr)) was 4.0–11.3 times and the “Reduction in affinity vs wild-type” value (ERRγ mutant receptors; Ile349Ala mutant, saturation and competitive binding (Tables 1 and 2)) was 3-4 fold. For the same compound, the “Activity decrements vs wild-type” value (ERRγ mutant receptors; Ile349Val and Ile349Leu mutants) was 110-135%, the “Reduction in IC50 value vs wild-type” value (ERRγ mutant receptors; Leu342Val and Leu342Ile mutants, homologous competitive binding (Table 2)) was 5–7 fold and the “Reduction in the binding affinity vs wild-type” value (ERRγ mutant receptors; Leu342Val and Leu342Ile mutants, saturation binding (Table 1)) was 3–4 fold. For the same compound, the IC50 [7] was 21.9 ± 0.99 nM, the IC50 [8] was 26.8 ± 2.12 nM and the IC50 [9] was 16 ± 1.41 nM. It also gave an IC50 ([10]; Receptor binding potency IC50, wild-type ERRγ (Table 2)) of 4.96 ± 0.71 nM, an IC50 ([10]; Receptor binding potency IC50, wild-type ERRγ (Table 3, back support series)) of 5.64 ± 0.17 nM and an IC50 [11] of 34.7 ± 5.38 nM. For the same compound, the IC50 [12] was 24.5 ± 4.53 nM, the IC50 [13] was 60.6 ± 11.2 nM and the IC50 [14] was 154 ± 17.5 nM. It also gave an IC50 [15] of 20.1 ± 3.41 nM, an IC50 [16] of 56.1 ± 7.42 nM and an IC50 [17] of 20.1 ± 3.24 nM. It also gave an IC50 [18] of 11.7 ± 1.5 nM, an IC50 [19] of 10.4 ± 0.64 nM and an IC50 [20] of 9.7 ± 0.37 nM. It also gave an IC50 [21] of 13.7 ± 0.66 nM.
For `CC/C(=C(\c1ccc(O)cc1)c1ccc(OCCN(C)C)cc1)c1ccccc1` [4-OHT, 4-hydroxytamoxifen], the “Reinforced binding potency vs wild-type” value [22] was “about 40%” and the “Reduction in receptor-binding potency vs wild-type” value [23] was “more than 40 fold”.
